Results as given in ChEMBL document CHEMBL1136424, “Novel selective small molecule agonists for peroxisome proliferator-activated receptor delta (PPARdelta)--synthesis and biological activity” (Bioorg Med Chem Lett, 2003).

Legend:
[1] = biological target: T1, Peroxisome proliferator-activated receptor delta (Homo sapiens, UniProt Q03181); experiment: Maximum transcriptional activation of human PPAR delta receptor
T1 sequence (Q03181 whole entry): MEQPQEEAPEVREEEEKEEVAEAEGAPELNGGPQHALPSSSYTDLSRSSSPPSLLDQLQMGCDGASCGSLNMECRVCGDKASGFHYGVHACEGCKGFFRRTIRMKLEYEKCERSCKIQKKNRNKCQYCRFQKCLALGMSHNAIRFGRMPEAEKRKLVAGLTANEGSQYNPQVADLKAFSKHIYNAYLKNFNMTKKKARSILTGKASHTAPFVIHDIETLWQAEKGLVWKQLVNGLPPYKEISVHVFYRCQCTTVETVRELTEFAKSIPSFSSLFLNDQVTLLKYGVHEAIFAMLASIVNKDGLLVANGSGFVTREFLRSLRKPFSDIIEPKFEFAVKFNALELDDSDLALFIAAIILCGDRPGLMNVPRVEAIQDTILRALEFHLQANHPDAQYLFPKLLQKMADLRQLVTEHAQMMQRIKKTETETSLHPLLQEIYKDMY

[2] = biological target: T2, Peroxisome proliferator-activated receptor gamma (Homo sapiens, UniProt P37231); experiment: Maximum transcriptional activation of human PPAR gamma receptor
T2 sequence (P37231 whole entry): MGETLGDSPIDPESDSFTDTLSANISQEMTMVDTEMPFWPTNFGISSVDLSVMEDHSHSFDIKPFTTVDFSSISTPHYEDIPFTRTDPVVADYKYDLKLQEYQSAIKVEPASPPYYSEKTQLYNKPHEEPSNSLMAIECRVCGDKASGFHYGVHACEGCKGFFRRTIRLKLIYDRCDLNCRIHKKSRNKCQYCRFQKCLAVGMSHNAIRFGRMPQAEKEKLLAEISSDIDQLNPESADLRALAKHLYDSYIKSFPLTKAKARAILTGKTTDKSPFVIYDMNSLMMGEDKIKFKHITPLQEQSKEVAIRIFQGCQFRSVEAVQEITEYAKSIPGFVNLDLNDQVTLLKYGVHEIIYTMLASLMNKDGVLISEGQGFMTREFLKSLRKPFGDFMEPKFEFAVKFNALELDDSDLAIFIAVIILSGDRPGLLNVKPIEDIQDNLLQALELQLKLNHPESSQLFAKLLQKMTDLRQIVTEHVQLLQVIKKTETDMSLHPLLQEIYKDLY

[3] = biological target: T3, Peroxisome proliferator-activated receptor alpha (Homo sapiens, UniProt Q07869); experiment: Maximum transcriptional activation of human PPAR alpha receptor
T3 sequence (Q07869 whole entry): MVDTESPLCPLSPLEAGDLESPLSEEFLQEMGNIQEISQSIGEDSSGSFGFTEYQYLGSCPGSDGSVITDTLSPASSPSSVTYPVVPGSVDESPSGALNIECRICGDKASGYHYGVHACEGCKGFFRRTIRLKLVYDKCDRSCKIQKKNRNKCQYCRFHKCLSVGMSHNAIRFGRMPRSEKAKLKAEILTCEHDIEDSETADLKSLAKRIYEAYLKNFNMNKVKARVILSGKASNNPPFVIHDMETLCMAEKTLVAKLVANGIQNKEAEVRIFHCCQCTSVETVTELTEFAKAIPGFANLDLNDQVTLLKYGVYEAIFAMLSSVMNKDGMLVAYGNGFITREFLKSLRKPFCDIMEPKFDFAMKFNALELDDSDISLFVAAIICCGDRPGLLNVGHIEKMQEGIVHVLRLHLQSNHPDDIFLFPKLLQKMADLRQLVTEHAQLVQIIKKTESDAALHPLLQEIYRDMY

[4] = biological target: T1, Peroxisome proliferator-activated receptor delta; experiment: Binding affinity for human PPAR delta receptor
[5] = Half-life was measured in mice; type: ADME, organism-based; settings: mouse, in vivo
[6] = biological target: T4, Peroxisome proliferator-activated receptor gamma (Mus musculus, UniProt P37238); experiment: Activity against murine PPAR gamma receptor
T4 sequence (P37238 whole entry): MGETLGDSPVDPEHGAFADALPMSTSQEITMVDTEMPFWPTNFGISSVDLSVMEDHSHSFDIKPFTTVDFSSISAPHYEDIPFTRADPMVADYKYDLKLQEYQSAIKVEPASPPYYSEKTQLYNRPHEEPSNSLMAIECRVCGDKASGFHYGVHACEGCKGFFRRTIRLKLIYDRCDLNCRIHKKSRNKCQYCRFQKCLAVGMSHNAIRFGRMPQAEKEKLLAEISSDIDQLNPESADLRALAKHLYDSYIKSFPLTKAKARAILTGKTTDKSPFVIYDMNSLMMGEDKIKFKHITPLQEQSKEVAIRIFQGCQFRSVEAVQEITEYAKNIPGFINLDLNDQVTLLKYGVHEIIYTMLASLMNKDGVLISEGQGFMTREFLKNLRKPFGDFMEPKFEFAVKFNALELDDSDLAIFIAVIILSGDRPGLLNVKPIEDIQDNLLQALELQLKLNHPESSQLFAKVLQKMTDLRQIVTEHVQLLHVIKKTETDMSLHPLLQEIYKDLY

[7] = biological target: T3, Peroxisome proliferator-activated receptor alpha; experiment: Maximum transcriptional activation of human PPAR alpha receptor; IA=inactive
[8] = biological target: T2, Peroxisome proliferator-activated receptor gamma; experiment: Maximum transcriptional activation of human PPAR gamma receptor; IA=inactive

Row | Compound | EC50 [1] [nM] | EC50 [2] [nM] | EC50 [3] [nM] | IC50 [4] [nM] | half-life [5] [min] | EC50 [6] [nM] | EC50 [7] | EC50 [8]
1 | Cc1cc(OCc2sc(-c3ccc(C(F)(F)F)cc3)nc2C)ccc1/C=C/C(=O)O | 20 | 2700 | 3200 | 1000 |  |  |  | 
2 | Cc1nc(-c2ccc(C(F)(F)F)cc2)oc1COc1ccc(CCC(=O)O)cc1 | 60 | 3300 | 280 | 90 | < 10 |  |  | 
3 | Cc1nc(-c2ccc(C(F)(F)F)cc2)sc1COc1ccc(CCC(=O)O)cc1 | 90 | 7040 | 3000 | 30 |  |  |  | 
4 | Cc1cc(SCc2sc(-c3ccc(C(F)(F)F)c(F)c3)nc2C)ccc1OCC(=O)O |  | 2000 | 1100 |  |  | > 10000 |  | 
5 | Cc1nc(-c2ccc(C(F)(F)F)cc2)oc1COc1ccc(OCC(=O)O)cc1 | 470 | 9800 |  | 340 |  |  | Not Active | 
6 | Cc1nc(-c2ccc(C(F)(F)F)cc2)oc1COc1ccc(C(=O)O)cc1 | 5900 |  |  | 5500 |  |  | Not Active | Not Active
7 | Cc1cc(OCc2oc(-c3ccc(C(F)(F)F)cc3)nc2C)ccc1OCC(=O)O | 30 |  | 3200 | 30 |  |  |  | Not Active
8 | Cc1cc(SCc2oc(-c3ccc(C(F)(F)F)cc3)nc2C)ccc1OCC(=O)O | 10 | 1610 | 2500 | 3 |  |  |  | 
9 | Cc1nc(-c2ccc(C(F)(F)F)cc2)oc1CSc1ccc(OCC(=O)O)cc1 | 420 | 6400 |  | 90 |  |  | Not Active | 
10 | Cc1cc(OCc2sc(-c3ccc(C(F)(F)F)cc3)nc2C)ccc1CCC(=O)O | 30 | 4200 | 1700 | 60 |  |  |  | 
11 | Cc1nc(-c2ccc(C(F)(F)F)cc2)sc1COc1ccc(CC(=O)O)cc1 | 1900 | 7900 | 6900 | 1000 |  |  |  | 
